This is an account of results in the Bradley open melting point set (2014).

Values joined by “and” are separate entries in the source; they are usually repeats but may differ in a detail not shown here. Identical values can stand only once. Counter-ions that a name gives are not always drawn.

A word on the melting point: it is the temperature of the solid-liquid transition. Regarding `Cc1ccc(Br)cc1` [4-bromotoluene], the melting point turned out to be 28 °C.

As for `Nc1ncc2ncn(COCCO)c2n1` [6-Deoxyacyclovir], the melting point is 188 °C and 189 °C. Next, `Cc1cc(CC(=O)O)n(C)c1C(=O)c1ccc(Cl)cc1` [zomepirac]: 178 °C; `CCCCCOC(=O)c1ccc(O)cc1` [N-pentyl 4-hydroxybenzoate]: 38 °C. `ON=C1/CCCCC1` [N-Hydroxycyclohexanimine]: the melting point came to 90 °C.

As to `Cc1[nH]c(C)c(C)c1C` [2,3,4,5-tetramethylpyrrole], the melting point is 105 °C. On to `Clc1ccc(Br)cc1` [p-bromochlorobenzene], for which the melting point was found to be 67 °C.

Compound `C/C=C\Br` [cis-1-bromo-1-propene] displayed a melting point of -113 °C.

For `CCCCCCCCCCCC(N)=O` [Lauramide], the melting point was determined as 99 °C.

Turning to `CC1CCC(C(C)C)C(OC(=O)C(=O)/C=C/c2ccccc2)C1` (stereo unspecified), the melting point was 46 °C. The result for `Nc1ncc(Br)cc1[N+](=O)[O-]` [2-amino-5-bromo-3-nitropyridine] reads 208 °C; that for `O=C(CBr)c1ccc2c(c1)OCCCO2` [7-bromoacetyl-3,4-dihydro-1,5-benzodioxepin], 76 °C. Take `O=C(O)c1cc2ccccc2s1` [benzo[b]thiophene-2-carboxylic acid]: the melting point came to 239 °C.

In turn, `CN1CCCN(C)C1=O` [1,3-dimethyl-3,4,5,6-tetrahydro-2(1h)-pyrimidinone] displayed a melting point of -23 °C. Next, `Cc1cc(N)ccc1Br` [4-bromo-3-methylaniline]: 81 °C; `OCCc1ccc(O)cc1` [2-(4-hydroxyphenyl)ethanol]: 91 °C; `OB(O)c1ccccc1C(F)(F)F` [2-(trifluoromethyl)benzeneboronic acid]: 109 °C. The result for `O=C(Cl)C(Cl)(Cl)Cl` [trichloroacetyl chloride] reads -56.9 °C and -57 °C. The result for `BrCCBr` [1,2-dibromoethane] reads 10 °C; that for `O=C1C=C/C(=O)N(N1)C` [N-methylmaleic hydrazide], 218 °C; that for `CCOC(=O)C(=O)OCC` [Diethyl oxalate], -41 °C. As for `O=C(O)C1CCCCC1` [cyclohexanecarboxylic acid], the melting point stood at 31 °C. The result for `O=C(O)/C=C/c1cccc(Cl)c1` [m-chlorocinnamic_acid__(trans)] reads 159 °C; that for `Clc1cc(Cl)c(Cl)c(Cl)c1Cl` [Pentachlorobenzene], 85 °C. Next, `CCCCCCCCCCCCSCCCCCCCCCCCC` [di-n-dodecyl sulfide]: 40 °C. Next, `CC(=O)c1cccc(C#N)c1` [3-acetylbenzonitrile]: 99 °C. Consider `CC(=O)c1ccc(F)cc1O` [4'-fluoro-2'-hydroxyacetophenone], for which the melting point is 32 °C. The result for `OB(O)c1cccc(Br)c1` [3-bromobenzeneboronic acid] reads 166 °C. For the compound `COc1ccccc1[N+](=O)[O-]` [2-nitroanisole], the melting point turned out to be 10 °C. Compound `Nc1ccccc1N` [Benzene-1,2-diamine] returned a melting point of 102 °C. The result for `CCCCCCCCCCCCCCCCS` [1-hexadecanethiol] reads 21 °C; that for `Oc1ccc(C(c2ccccc2)(c2ccccc2)c2ccccc2)cc1` [4-tritylphenol], 281 °C; that for `O=Cc1ccccc1C(=O)O` [2-carboxybenzaldehyde], 99 °C.

In turn, `CCSc1ccc(B(O)O)cc1` [4-(ethylthio)benzeneboronic acid] showed a melting point of 105 °C.

`O=C(O)c1ccccc1O` [Salicylic acid] registered a melting point of 159 °C. The result for `Oc1cccc2[nH]ccc12` [4-hydroxyindole] reads 98 °C; that for `CCCCCCCCCCCCCCCCCCN1c2ccccc2C(C)(C)C12C=Cc1cc([N+](=O)[O-])ccc1O2` (stereo unspecified), 81 °C. The result for `CC(C)CCCC(C)C1CCC2C3CC(O)C4=CC(=O)CCC4(C)C3CCC12C` (stereo unspecified) [6-hydroxycholest-4-en-3-one] reads 155 °C. The result for `CCNC(=O)C(=O)NCC` [N,N'-diethyloxamide] reads 180 °C; that for `COc1ccc(C=CC(=O)c2ccc(O)cc2)cc1` [2-Propen-1-one, 1-(4-hydroxyphenyl)-3-(4-methoxyphenyl)-], 188 °C; that for `CCCCCCSc1cc(N(NC(=O)OC(C)(C)C)C(=O)OC(C)(C)C)cc(SCCCCCC)c1SCCCCCC`, 74.5 °C. The compound `CCCC(=O)O` [butyric acid] had a melting point of -5.7 °C. On to `O=C\1c3c(O/C(=C/1)c2ccc(O)c(O)c2)cc(O)cc3O` [luteolin], for which the melting point turned out to be 330 °C. Next, `N#Cc1cccc(Cl)c1` [3-chlorobenzonitrile]: 41 °C; `Cc1ccc(C)c(OCCCC(C)(C)C(=O)O)c1` [gemfibrozil]: 61 °C. Next, `COc1ccc(C=C2C3=C(CCCC3)OC3=C2CCCC3)cc1`: 124 °C; `CC(C)(C)OC(=O)NC(CC(=O)O)c1ccccc1F` (stereo unspecified) [3-(boc-amino)-3-(2-fluorophenyl)propionic acid]: 143 °C.

`Nn1c(S)nnc1-c1ccc(Cl)cc1` [4H-1,2,4-triazole-3-thiol, 4-amino-5-(4-chlorophenyl)-] registered a melting point of 322 °C. With `O=[N+]([O-])c1ccccc1O` [2-nitrophenol], the melting point stood at 46 °C.

Compound `Fc1ccccc1-c1ccccc1` [2-fluorobiphenyl] registered a melting point of 74 °C. The result for `Oc1c(Br)c(Br)c(Br)c(Br)c1Br` [Pentabromophenol] reads 230 °C. The result for `Brc1ccccc1I` [1-bromo-2-iodobenzene] reads 10 °C; that for `CCCCN1CCCCC1C(=O)Nc1c(C)cccc1C` (stereo unspecified) [bupivacaine], 107 °C. Turning to `COc1cc2nc(N3CCN(C(=O)c4ccco4)CC3)nc(N)c2cc1OC` [prazosin], the melting point is 285 °C. Next, `COC(=O)c1ccc(N)cc1` [methyl p-aminobenzoate]: 114 °C. In turn, `CC1=C(c2ccccc2)c2ccccc2C1=O` [2-methyl-3-phenyl-1H-inden-1-one] came in with a melting point of 87 °C. `Cc1sc2ccccc2c1CC1=NCCN1` [metizoline] displayed a melting point of 156 °C. The result for `CC(=O)N(C1=NC(=O)/C(=C/c2cc(C)n(-c3ccc(C(F)(F)F)cc3)c2C)S1)c1ccccc1` [OSM-S-45] reads 310 °C; that for `CCCCC(CC)C(=O)O` (stereo unspecified) [2-ethylhexanoic acid], -59 °C. The result for `CC=C(C)CC` [3-methyl-cis-2-pentene] reads -135 °C.

The compound `CNC=O` [N-methylformamide] yielded a melting point of -4 °C. Next, `CCCCCC=CCC=CCCCCCCCC(=O)O` (stereo in doubt) [linoleic acid]: -8.5 °C; `C#CC(O)(c1ccccc1)c1ccccc1` [1,1-diphenyl-2-propyn-1-ol]: 46 °C. The result for `NNC(=O)NN` [Carbonohydrazide] reads 158 °C; that for `C1C2CC3CC1CC(C2)C3` [adamantane], 268 °C; that for `CCOCCOCCOCC` [1-Ethoxy-2-(2-ethoxyethoxy)ethane], -44 °C. Consider `CC(C)(C)NCC(O)COc1cccc2c1C[C@H](O)[C@H](O)C2` (stereo partly specified) [Nadolol], for which the melting point came out at 124 °C.

Take `CCCS` [1-propanethiol]: the melting point is -113 °C. Next, `NC(=O)CS(=O)C(c1ccccc1)c1ccccc1` (stereo unspecified) [Modafinil]: 165 °C; `ClC(Cl)c1ccccc1` [benzal chloride]: -16 °C. Next, `ClCc1ccc(Cl)cc1` [4-chlorobenzyl_chloride]: 30 °C; `CNC=O` [n-methylformamide]: -40 °C; `BrC=Cc1ccccc1` [beta-bromostyrene, cis trans]: -8 °C. Next, `COc1cc(OC)cc(OC)c1` [1,3,5-trimethoxybenzene]: 53 °C; `O=CNc1ccccc1` [N-Phenylformamide]: 47 °C; `CC(=O)c1ccc(B(O)O)s1` [5-acetylthiophene-2-boronic acid]: 145 °C. Turning to `OC[C@H]1OC(O)[C@@H](O)[C@@H](O)[C@@H]1O` (stereo partly drawn) [D-mannose], the melting point amounted to 130 °C. The result for `COc1ccc(O)c(C=O)c1` [2-hydroxy-5-methoxybenzaldehyde] reads 15 °C; that for `Nc1ncnc2c1ncn2[C@@H]1O[C@H](CO)[C@@H](O)[C@H]1O` [adenosine], 235 °C. The result for `C=Cc1ccccc1C` [2-methylstyrene] reads -69 °C; that for `Cc1ccccc1B(O)O` [2-methylbenzeneboronic acid], 163 °C; that for `N#CCc1ccc(O)cc1` [4-hydroxyphenylacetonitrile], 69 °C. The compound `O=C(O)[C@@H](O)[C@H](O)C(=O)O` [D-tartaric acid] returned a melting point of 168 °C. Next, `COC(=O)c1ccc(N)nc1` [methyl 6-aminonicotinate]: 155 °C. Next, `Nc1ccc(S(=O)(=O)Nc2nccs2)cc1` [4-Amino-N-(1,3-thiazol-2-yl)benzenesulfonamide]: 202 °C; `O=C1CN=C(c2ccccc2)c2cc(Cl)ccc2N1CC(F)(F)F` [halazepam]: 164 °C. Next, `CCOC(=O)/C=C/N(C)C` [ethyl 3-(dimethylamino)acrylate]: 18 °C. Regarding `COc1ccc2c3c1O[C@H]1[C@@H](O)CC[C@H]4[C@@H](C2)N(C)CC[C@@]341` [Dihydrocodeine], the melting point came to 112 °C.

As for `CC(=O)Nc1ccccc1S(C)(=O)=O` [2'-(methylsulfonyl)acetanilide], the melting point is 145 °C. Regarding `ClB(Cl)c1ccccc1` [dichlorophenylborane], the melting point was found to be 7 °C. Next, `CC1COC(=O)O1` (stereo unspecified) [4-Methyl-1,3-dioxolan-2-one]: -55 °C.
